Laboratory results taken from article PMC12265377, “CC48 a new CB2R agonist/FAAH inhibitor dual drug blocks gastric cancer progression and overcomes paclitaxel resistance” (Journal of Experimental & Clinical Cancer Research : CR, 2025).

Experiments:
Format in all cases: cell-based, human
HGC27-R cells [1] = test: Muse Ki67 cell proliferation assay
From the text: (§1) After the specified drug treatments, the cells were processed with the Muse Ki67 cell proliferation kit, which identified actively proliferating cells based on the expression of Ki67, a nuclear protein present in the active phases of the cell cycle (G1, S, G2, and M phases) and absent in the resting G0 phase. The Muse Ki67 Proliferation Assay was used with the Guava Muse Cell Analyzer according to the manufacturer’s instructions (Luminex Corporation, Austin, USA). Briefly, the cells were stained after fixation and permeabilization procedures, using Hu Ki67 or Hu IgG1 control fluorochrome-conjugated antibodies to distinguish Ki67(+) or Ki67(-) cells, respectively. The software provided the percentage of both Ki67(+) and Ki67(-) cells.

HGC27-S cells [2] = test: Muse Ki67 cell proliferation assay; conditions: HGC27-S, 48 h
From the text: as §1

NCI-N87 cells [3] = test: Muse Ki67 cell proliferation assay; conditions: NCI-N87, single treatment (10 µM compound; 2 nM PTX); control 78.2%
From the text: as §1

HGC27-R cells [4] = test: Muse caspase 3/7 activation assay; conditions: 48 h
From the text: (§2) After the specified drug treatments, the cells were processed using the Muse Annexin V/Dead Cell Assay Kit (Luminex Corporation, Austin, USA) for quantitative analysis of live, early/ late apoptotic, and dead cells on a Muse Cell Analyzer. Briefly, the assay utilized Annexin V to detect phosphatidylserine on the external membrane of apoptotic cells. The fluorescent signal emitted by dye-conjugated antibodies was detected by flow cytometry technology (Muse Cell Analyzer, Luminex Corporation, Austin, USA). 7-Amino-Actinomycin D (7-AAD) dead cell marker was also used. The cells were then analyzed according to the user’s guide. […] After 48 h treatments the cells were processed according to the user’s guide and analyzed with the Muse caspase-3/7 kit (Millipore).The assay provides the relative percentage of living, early/late apoptotic or dead cells.

HGC27-S cells [5] = test: Muse caspase 3/7 activation assay; conditions: 48 h
From the text: as §2

NCI-N87 cells [6] = test: Muse caspase 3/7 activation assay
From the text: as §2

[7] = representative flow cytometry chart, 48 h, 10 µM CC48, PTX, single or combined as labelled
[8] = representative flow cytometry chart, 10 µM CC48, PTX, single or combined as labelled
[9] = single treatment, untreated 6.6%

CC(=O)O[C@H]1C(=O)[C@@]2(C)[C@H]([C@H](OC(=O)c3ccccc3)[C@]3(O)C[C@H](OC(=O)[C@H](O)[C@@H](NC(=O)c4ccccc4)c4ccccc4)C(C)=C1C3(C)C)[C@]1(OC(C)=O)CO[C@@H]1C[C@@H]2O [PTX, Paclitaxel]
Ki67(+) cells (HGC27-R cells [1]; [7]): 80.50%
Ki67(-) cells (HGC27-R cells [1]; [7]): 19.50%
percentage of Ki67+ cells (HGC27-R cells [1]; single treatment, control 82.95%): 80.5%
percentage of Ki67+ cells (HGC27-S cells [2]; single treatment (10 µM CC48; 4 nM PTX), control 80.50%): 58.1%
Ki67(+) cells (HGC27-S cells [2]; [8]): 58.10%
Ki67(-) cells (HGC27-S cells [2]; [8]): 41.90%
percentage of Ki67+ cells (NCI-N87 cells [3]): 68.1%
apoptotic cells (caspase 3/7 activation) (HGC27-R cells [4]; single treatment (4 nM PTX, 6 µM AM630, 10 µM others), untreated 18.9%): 21.4%
dead cells (HGC27-R cells [4]; [9]): 7.70%
apoptotic cells (caspase 3/7 activation) (HGC27-S cells [5]; single treatment (4 nM PTX, 6 µM AM630, 10 µM others), untreated 13.05%): 26.2%
dead cells (HGC27-S cells [5]; [9]): 23.7%
cells with activated caspase 3/7 (NCI-N87 cells [6]; NCI-N87, single treatment (2 nM PTX, 6 µM AM630, 10 µM others), untreated 6.35%): 14.6%
dead cells (NCI-N87 cells [6]; NCI-N87, single treatment, control 5.8% / 5.6%): 8.1%
